One data set concerns rgRSV224 virus. The data set is described as follows: Antiviral activity: inhibition of rgRSV224 (GFP-expressing RSV) replication in HeLa cells, GFP expression read-out. The class given is cell-based, respiratory syncytial virus (RSV). The conditions noted are these: for RSV HELA pEC50: rgRSV224 virus (MOI=1) in HeLa cells, GFP read-out; for EC50: human respiratory syncytial virus, HeLa, read-out: RSV HELA pEC50, rgRSV224 virus (MOI=1) in HeLa cells, GFP read-out (converted). The procedure, abridged:
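EC50 is the 50% inhibitory concentration for GFP expression, read by laser microscopy three days after rgRSV224 infection (MOI=1) of HeLa cells (3,000/well). Compounds were tested as 9 serial 4-fold dilutions at 0.05% DMSO, and cells were incubated at 37° C under 5% CO2.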

In the next data set the test system is HeLa cells. The data set is described as follows: Cytotoxicity in HeLa cells, ATP content measured with the ATPlite kit. The class given is cell-based.
Assay in data set [1]: as above
The class given is cell-based. The conditions noted are these: human, TOX HELA pCC50.

Data on 22 compounds can be found in US11084826B2, “RSV antiviral pyrazolo- and triazolo-pyrimidine compounds” (Janssen Sciences Ireland Unlimited Company, priority 2015, dated 2021).

With `CC1CCCCCN1C(=O)c1cc(N2CCCC2)n2nc(-c3ccc(N(C)C)cc3)cc2n1` (stereo not shown) [Compound A19], in the data set on rgRSV224 virus, the “RSV HELA pEC50” value was 5.34. Also, in the data set with HeLa cells, the “TOX HELA pCC50” value is on record as 4.42.

Consider `CNc1cc(C(=O)N2CCc3ccccc3C2C)nc2cc(-c3ccc(/C=C/C(=O)O)cc3F)nn12` (stereo not shown) [Compound M8], for which, in the data set on rgRSV224 virus, the “RSV HELA pEC50” value came out at 7.31. The “TOX HELA pCC50” value in the data set with HeLa cells is less than 4.60.

Turning to `CCc1cc(C(=O)N2CCCCC[C@H]2C)nc2cc(-c3ccc(/C=C/C(=O)O)cc3F)nn12` [Compound M7], in the data set on rgRSV224 virus, the “RSV HELA pEC50” value is 7.00. Besides, the “TOX HELA pCC50” value in the data set with HeLa cells is listed as less than 4.60.

In the case of `CCCC(C)N(C)C(=O)c1cc(CC)n2nc(-c3cccc(/C=C/C(=O)O)c3F)cc2n1` (stereo not shown) [Compound M38], the “RSV HELA pEC50” value in the data set with rgRSV224 virus is recorded as 6.65. The “TOX HELA pCC50” value in the data set on HeLa cells is reported as less than 4.

Turning to `CCc1cc(C(=O)N2CCc3ccccc3C2C)nc2cc(-c3ccc(/C=C/C(=O)O)cc3Cl)nn12` (stereo not shown) [Compound M6], the “RSV HELA pEC50” value in the data set with rgRSV224 virus was found to be 6.84. The “TOX HELA pCC50” value in the data set on HeLa cells is listed as less than 4.60.

Turning to `C[C@@H]1CCCCCN1C(=O)c1cc(C2CC2)n2nc(-c3ccc(/C=C/C(=O)O)cc3F)cc2n1` [Compound M21], in the data set with rgRSV224 virus, the “RSV HELA pEC50” value stood at 7.16. In addition, the “TOX HELA pCC50” value with HeLa cells was found to be 4.34.

For the compound `C[C@@H]1c2ccccc2CCN1C(=O)c1cc(C2(C)CC2)n2nc(-c3cccc(/C=C/C(=O)O)c3F)cc2n1` [Compound M36], the “RSV HELA pEC50” value with rgRSV224 virus is 7.99. Further, the “TOX HELA pCC50” value in the data set on HeLa cells came out at 4.26.

As to `CCCC(C)N(CC)C(=O)c1cc(CC)n2nc(-c3ccccc3F)cc2n1` (stereo not shown) [Compound A16], the “RSV HELA pEC50” value with rgRSV224 virus came to 5.57. Besides, in the data set with HeLa cells, the “TOX HELA pCC50” value was 4.45.

As for `C[C@@H]1CCCCCN1C(=O)c1cc(C2(C)COC2)n2nc(-c3ccc(C4C[C@H]4C(=O)O)cc3F)cc2n1` (stereo partly shown) [Compound O17], the “RSV HELA pEC50” value in the data set with rgRSV224 virus worked out at 7.29. For the same compound, in the data set with HeLa cells, the “TOX HELA pCC50” value worked out at 4.11.

For the compound `CCc1cc(C(=O)N2CCCC3(CC=CC3)C2C)nc2cc(-c3cccc(/C=C/C(=O)O)c3F)nn12` (stereo not shown) [Compound M39], the “RSV HELA pEC50” value in the data set on rgRSV224 virus came out at 6.19. Further, the “TOX HELA pCC50” value with HeLa cells was less than 4.

Turning to `C[C@@H]1CCCCCN1C(=O)c1cc(N(C)C)n2nc(-c3ccc(/C=C/C(=O)O)cc3F)cc2n1` [Compound M4], in the data set on rgRSV224 virus, the “RSV HELA pEC50” value was found to be 6.80. Also, in the data set on HeLa cells, the “TOX HELA pCC50” value is recorded as less than 4.60.

Usually CC50 stands for the concentration giving 50% cytotoxicity. The melting point is the temperature of the solid-liquid transition. The compound `CCc1cc(C(=O)N2CCCCCC2C)nc2cc(-c3cccs3)nn12` (stereo not shown) [Compound A1] registered a melting point of 110 to 120 °C. For the same compound, the EC50 with rgRSV224 virus is 5.01 µM. The half-maximal cytotoxic concentration (CC50) at 3 days in data set [1] was more than 50.1 µM.

On to `CC1CCCCCN1C(=O)c1cc(C(F)(F)F)n2nc(-c3ccc(C(N)=O)cc3F)cc2n1` (stereo not shown) [Compound I31], for which the melting point was in the range of 238 to 240 °C. The EC50 in the data set on rgRSV224 virus is 0.141 µM. The half-maximal cytotoxic concentration (CC50) at 3 days in data set [1] is more than 25.1 µM.

As to `CCc1cc(C(=O)N2CCCCC[C@H]2C)nc2cc(-c3ccc(C(N)=O)cc3F)nn12` [Compound I1], the melting point amounted to 180 °C. For the same compound, the EC50 with rgRSV224 virus is 0.0537 µM. Moreover, the CC50 at 3 days in data set [1] was more than 25.1 µM.

Turning to `CCc1cc(C(=O)N2CCCCCC2C)nc2cc(-c3ccccc3F)nn12` (stereo not shown) [Compound A4], the melting point is 120 to 125 °C. The EC50 in the data set on rgRSV224 virus is 1.02 µM. The compound also gave a CC50 at 3 days in data set [1] of 45.7 µM.

In the case of `C[C@@H]1CCCCCN1C(=O)c1cc(C2(C)CC2)n2nc(-c3ccc4c(c3F)OCC(C(=O)O)=C4)cc2n1` (racemic) [Compound F51], the melting point is 261.88 °C. Moreover, the EC50 with rgRSV224 virus was 0.0275 µM. The compound further gave a CC50 at 3 days in data set [1] of 57.5 µM.

For the compound `C[C@@H]1c2ccsc2CCN1C(=O)c1cc(C2(C)CC2)n2nc(-c3ccc([C@@H]4C[C@H]4C(=O)O)cc3F)cc2n1` [Compound O21], the melting point was found to be 207.61 °C. For the same compound, in the data set on rgRSV224 virus, the EC50 is 0.011 µM. The compound further gave a CC50 at 3 days in data set [1] of 55 µM.

Consider `CCc1cc(C(=O)N2CCCCC[C@H]2C)nc2cc(-c3ccc(N4CC[C@](C)(C(=O)O)C4)cc3F)nn12` [Compound W49], for which the melting point came to 179.2 °C. Moreover, the EC50 with rgRSV224 virus was 0.0437 µM. This compound also had a CC50 at 3 days in data set [1] of 53.7 µM.

With `CCc1cc(C(=O)N2CCc3ccccc3C2C)nc2cc(-c3ccc(C(=O)NC(C)C(=O)O)cc3F)nn12` (stereo not shown) [Compound L11], the melting point lay in the range of 165 to 170 °C. The EC50 in the data set with rgRSV224 virus was 0.631 µM. This compound displayed a 50% cytotoxic concentration (CC50) at 3 days in data set [1] of more than 25.1 µM.

In turn, `CCc1cc(C(=O)N2CCCCCC2C)nc2cc(-c3ccc(C(N)=O)nc3)nn12` (stereo not shown) [Compound I28] gave a melting point of 174 to 175 °C. In addition, the EC50 with rgRSV224 virus was 1.78 µM. Besides, the half-maximal cytotoxic concentration (CC50) at 3 days in data set [1] was more than 25.1 µM.

Consider `CCc1cc(C(=O)N2CCCCC[C@H]2C)nc2cc(-c3ccc(N4CC[C@H](C(=O)O)C4)cc3F)nn12` [Compound W7], for which the melting point is 205.8 °C. The EC50 in the data set on rgRSV224 virus is 0.0479 µM. The same compound gave a CC50 at 3 days in data set [1] of 70.8 µM.

As to `C[C@@H]1CCCCCN1C(=O)c1cc(C2(C)COC2)n2nc(-c3ccc(-n4cc(C(=O)O)cn4)cc3F)cc2n1` (racemic) [Compound W36], the melting point came to 223.2 °C. For the same compound, in the data set on rgRSV224 virus, the EC50 is 0.151 µM. In data set [1], this compound displayed a CC50 at 3 days of more than 25.1 µM.
